According to publication PMC11206519, “Multi-Endpoint Toxicological Assessment of Chrysin Loaded Oil-in-Water Emulsion System in Different Biological Models” (Nanomaterials, 2024):

Tests used:
3T3-L1 = test: MTT cytotoxicity assay; assay type: cell-based; conditions: Mus musculus, 48 h
Description: (§1) RAW 264.7 (murine macrophage-like cell), 3T3-L1 adipocyte (murine adipocyte), HEK293 (human embryonic kidney cell), and LX-2 (human hepatic stellate cell) were obtained from American Type Culture Collection (ATCC, Manassas, VA, USA). RAW 264.7 macrophages were cultured as a suspension culture in an ultra-low attachment culture dish, whereas the others were cultured as adherent cells in a cell culture flask. The cells were grown in Dulbecco’s Modified Eagle Medium (DMEM) with L-glutamine, supplemented with 10% fetal bovine serum (FBS) (RAW 264.7, HEK293, and LX-2) or 10% fetal calf serum (FCS) (3T3-L1) and 1% penicillin under 5% CO2, at 37 °C. […] Blank-ES was used as a vehicle control. The amount of blank-ES was equal to chrysin-ES amount that was used for the treatment. The cytotoxicity of chrysin, chrysin-ES, and blank-ES in each cell was determined using an MTT assay. […] Then, the solution was gently removed, and the formazan crystal was dissolved with dimethyl sulfoxide (DMSO). The soluble formazan was measured using a microplate reader (Bio-TEK Synergy Hybrid Reader H4) at 540 nm. The cell viability is directly related to the absorbance of formazan. The percentage of cell viability was calculated using the following equation. Cell viability (%) = (Absorbance (sample))/(Absorbance (control)) × 100

LX-2 = test: MTT cytotoxicity assay; assay type: cell-based; conditions: Homo sapiens, LX-2, 48 h
Description: as §1

[1] = system: D. melanogaster trans-heterozygous mwh+/+flr3 larvae of the HB cross; test: SMART wing spot test, anti-mutagenicity, HB cross
Description: The somatic mutation and recombination test, or the wing spot test, using D. melanogaster was employed as an in vivo system to assess the mutagenicity and anti-mutagenicity of chrysin-ES. Two different crosses were conducted: (i) a standard cross (ST) and (ii) a high bioactivation cross (HB). The standard cross larvae were obtained from virgin female of flr3/TM3, Ser crossed with males of mwh/mwh, while the HB cross larvae expressing cytochrome P450 enzymes involved in xenobiotic biotransformation were obtained from virgin females of ORR/ORR; flr^3/In (3LR) TM3, ri p^psep l (3)89Aa bx^34e e Bd^s crossed with males of mwh/mwh. The flies were cultured at a constant temperature of 25 ± 1 °C and 60–70% RH at photoperiod 12:12 (light/dark). To evaluate the mutagenicity of chrysin and chrysin-ES, a hundred larva F1 progenies derived from the above crossing were fed with instant Drosophila medium (Formula 4-24®), Carolina, Burlington, NC, USA) containing chrysin or chrysin-ES (20–120 µg/mL). DI was used as a negative control, while 20 mM urethane (URE) was used as a positive control. The larvae were reared on each medium until pupation at 25 °C. After that, forty wings of surviving flies in each group were collected for mutant analysis. The mutant spots on the wings, including small single spots, large single spots, and twin spots, were counted. The statistical significance was calculated as previously described by Frei and Würgler.
Furthermore, the anti-mutagenicity of the samples was performed by a similar procedure as mentioned above.

Sprague Dawley rats = conditions: ref 45 (Yao et al.), cited from earlier work
[2] = decreases cell viability by 20%
[3] = decreases cell viability by 50%
[4] = NMU (sodium nitrite 36 mM: methylurea 10 mM) + 20 μg/mL

Q: Which results are given for `O=c1cc(-c2ccccc2)oc2cc(O)cc(O)c12` [Chrysin, 5,7-dihydroxyflavone]?
A: IC20 (3T3-L1; [2]): > 90 µM; IC50 (3T3-L1; [3]): > 90 µM; IC20 (LX-2; [2]): ~52 µM; IC50 (LX-2; [3]): > 90 µM; Inhibition (%) ([1]; EMS 5 mM + 20 μg/mL): 25%; Inhibitory Classification ([1]; EMS 5 mM + 20 μg/mL): Weak; Mutant spots per individual (number of spots), Large Single ([1]; EMS 5 mM + 20 μg/mL): 1.63 (65); Mutant spots per individual (number of spots), Small Single ([1]; EMS 5 mM + 20 μg/mL): 5.3 (212); Mutant spots per individual (number of spots), Total ([1]; EMS 5 mM + 20 μg/mL): 7.80 (312); Mutant spots per individual (number of spots), Twin ([1]; EMS 5 mM + 20 μg/mL): 0.88 (35); Inhibition (%) ([1]; EMS 5 mM + 40 μg/mL): 31%; Inhibitory Classification ([1]; EMS 5 mM + 40 μg/mL): Weak; Mutant spots per individual (number of spots), Large Single ([1]; EMS 5 mM + 40 μg/mL): 0.78 (31); Mutant spots per individual (number of spots), Small Single ([1]; EMS 5 mM + 40 μg/mL): 6.03 (241); Mutant spots per individual (number of spots), Total ([1]; EMS 5 mM + 40 μg/mL): 7.13 (285); Mutant spots per individual (number of spots), Twin ([1]; EMS 5 mM + 40 μg/mL): 0.33 (13); Inhibition (%) ([1]; EMS 5 mM + 80 μg/mL): 60%; Inhibitory Classification ([1]; EMS 5 mM + 80 μg/mL): Moderate; Mutant spots per individual (number of spots), Large Single ([1]; EMS 5 mM + 80 μg/mL): 0.73 (29); Mutant spots per individual (number of spots), Small Single ([1]; EMS 5 mM + 80 μg/mL): 3.23 (129); Mutant spots per individual (number of spots), Total ([1]; EMS 5 mM + 80 μg/mL): 4.18 (167); Mutant spots per individual (number of spots), Twin ([1]; EMS 5 mM + 80 μg/mL): 0.23 (9); Inhibition (%) ([1]; EMS 5 mM + 120 μg/mL): 76%; Inhibitory Classification ([1]; EMS 5 mM + 120 μg/mL): Strong; Mutant spots per individual (number of spots), Large Single ([1]; EMS 5 mM + 120 μg/mL): 0.20 (8); Mutant spots per individual (number of spots), Small Single ([1]; EMS 5 mM + 120 μg/mL): 2.20 (88); Mutant spots per individual (number of spots), Total ([1]; EMS 5 mM + 120 μg/mL): 2.53 (101); Mutant spots per individual (number of spots), Twin ([1]; EMS 5 mM + 120 μg/mL): 0.13 (5); Inhibition (%) ([1]; MMC 0.05 mM + 20 μg/mL): 5%; Inhibitory Classification ([1]; MMC 0.05 mM + 20 μg/mL): Negligible; Mutant spots per individual (number of spots), Large Single ([1]; MMC 0.05 mM + 20 μg/mL): 0.85 (34); Mutant spots per individual (number of spots), Small Single ([1]; MMC 0.05 mM + 20 μg/mL): 3.70 (148); Mutant spots per individual (number of spots), Total ([1]; MMC 0.05 mM + 20 μg/mL): 4.65 (186); Mutant spots per individual (number of spots), Twin ([1]; MMC 0.05 mM + 20 μg/mL): 0.10 (4); Inhibition (%) ([1]; MMC 0.05 mM + 40 μg/mL): 60%; Mutant spots per individual (number of spots), Large Single ([1]; MMC 0.05 mM + 40 μg/mL): 0.18 (7); Mutant spots per individual (number of spots), Small Single ([1]; MMC 0.05 mM + 40 μg/mL): 1.63 (65); Mutant spots per individual (number of spots), Total ([1]; MMC 0.05 mM + 40 μg/mL): 1.93 (77); Mutant spots per individual (number of spots), Twin ([1]; MMC 0.05 mM + 40 μg/mL): 0.13 (5); Inhibition (%) ([1]; MMC 0.05 mM + 80 μg/mL): 79%; Inhibitory Classification ([1]; MMC 0.05 mM + 80 μg/mL): Strong; Mutant spots per individual (number of spots), Large Single ([1]; MMC 0.05 mM + 80 μg/mL): 0.08 (3); Mutant spots per individual (number of spots), Small Single ([1]; MMC 0.05 mM + 80 μg/mL): 0.98 (39); Mutant spots per individual (number of spots), Total ([1]; MMC 0.05 mM + 80 μg/mL): 1.05 (42); Mutant spots per individual (number of spots), Twin ([1]; MMC 0.05 mM + 80 μg/mL): 0 (0); Inhibition (%) ([1]; MMC 0.05 mM + 120 μg/mL): 88%; Inhibitory Classification ([1]; MMC 0.05 mM + 120 μg/mL): Strong; Mutant spots per individual (number of spots), Large Single ([1]; MMC 0.05 mM + 120 μg/mL): 0.03 (1); Mutant spots per individual (number of spots), Small Single ([1]; MMC 0.05 mM + 120 μg/mL): 0.55 (22); Mutant spots per individual (number of spots), Total ([1]; MMC 0.05 mM + 120 μg/mL): 0.58 (23); Mutant spots per individual (number of spots), Twin ([1]; MMC 0.05 mM + 120 μg/mL): 0 (0); Inhibition (%) [1, 4]: 54%; Inhibitory Classification [1, 4]: Moderate; Mutant spots per individual (number of spots), Large Single [1, 4]: 0.09 (3); Mutant spots per individual (number of spots), Small Single [1, 4]: 0.78 (25); Mutant spots per individual (number of spots), Total [1, 4]: 0.88 (28); Mutant spots per individual (number of spots), Twin [1, 4]: 0 (0); Inhibitory Classification ([1]; NMU (sodium nitrite 36 mM: methylurea 10 mM) + 20 μg/mL, listed as chrysin): moderate (41–60%); Inhibition (%) ([1]; NMU + 40 μg/mL): 80%; Inhibitory Classification ([1]; NMU + 40 μg/mL): Strong; Mutant spots per individual (number of spots), Large Single ([1]; NMU + 40 μg/mL): 0.05 (2); Mutant spots per individual (number of spots), Small Single ([1]; NMU + 40 μg/mL): 0.30 (12); Mutant spots per individual (number of spots), Total ([1]; NMU + 40 μg/mL): 0.38 (15); Mutant spots per individual (number of spots), Twin ([1]; NMU + 40 μg/mL): 0.03 (1); Inhibition (%) ([1]; NMU + 80 μg/mL): 81%; Inhibitory Classification ([1]; NMU + 80 μg/mL): Strong; Mutant spots per individual (number of spots), Large Single ([1]; NMU + 80 μg/mL): 0.04 (1); Mutant spots per individual (number of spots), Small Single ([1]; NMU + 80 μg/mL): 0.32 (9); Mutant spots per individual (number of spots), Total ([1]; NMU + 80 μg/mL): 0.36 (10); Mutant spots per individual (number of spots), Twin ([1]; NMU + 80 μg/mL): 0 (0); Inhibition (%) ([1]; NMU + 120 μg/mL): 95%; Inhibitory Classification ([1]; NMU + 120 μg/mL): Strong; Mutant spots per individual (number of spots), Large Single ([1]; NMU + 120 μg/mL): 0.05 (2); Mutant spots per individual (number of spots), Small Single ([1]; NMU + 120 μg/mL): 0.05 (2); Mutant spots per individual (number of spots), Total ([1]; NMU + 120 μg/mL): 0.10 (4); Mutant spots per individual (number of spots), Twin ([1]; NMU + 120 μg/mL): 0 (0); Inhibition (%) ([1]; URE 20 mM + 20 μg/mL): 84%; Inhibitory Classification ([1]; URE 20 mM + 20 μg/mL): Strong; Mutant spots per individual (number of spots), Large Single ([1]; URE 20 mM + 20 μg/mL): 0.15 (6); Mutant spots per individual (number of spots), Small Single ([1]; URE 20 mM + 20 μg/mL): 1.55 (62); Mutant spots per individual (number of spots), Total ([1]; URE 20 mM + 20 μg/mL): 1.70 (68); Mutant spots per individual (number of spots), Twin ([1]; URE 20 mM + 20 μg/mL): 0 (0); Inhibition (%) ([1]; URE 20 mM + 40 μg/mL): 84%; Inhibitory Classification ([1]; URE 20 mM + 40 μg/mL): Strong; Mutant spots per individual (number of spots), Large Single ([1]; URE 20 mM + 40 μg/mL): 0 (0); Mutant spots per individual (number of spots), Small Single ([1]; URE 20 mM + 40 μg/mL): 1.75 (70); Mutant spots per individual (number of spots), Total ([1]; URE 20 mM + 40 μg/mL): 1.75 (70); Mutant spots per individual (number of spots), Twin ([1]; URE 20 mM + 40 μg/mL): 0 (0); Inhibition (%) ([1]; URE 20 mM + 80 μg/mL): 92%; Inhibitory Classification ([1]; URE 20 mM + 80 μg/mL): Strong; Mutant spots per individual (number of spots), Large Single ([1]; URE 20 mM + 80 μg/mL): 0.03 (1); Mutant spots per individual (number of spots), Small Single ([1]; URE 20 mM + 80 μg/mL): 0.88 (35); Mutant spots per individual (number of spots), Total ([1]; URE 20 mM + 80 μg/mL): 0.90 (36); Mutant spots per individual (number of spots), Twin ([1]; URE 20 mM + 80 μg/mL): 0 (0); Inhibition (%) ([1]; URE 20 mM + 120 μg/mL): 89%; Inhibitory Classification ([1]; URE 20 mM + 120 μg/mL): Strong; Mutant spots per individual (number of spots), Large Single ([1]; URE 20 mM + 120 μg/mL): 0.08 (3); Mutant spots per individual (number of spots), Small Single ([1]; URE 20 mM + 120 μg/mL): 1.08 (43); Mutant spots per individual (number of spots), Total ([1]; URE 20 mM + 120 μg/mL): 1.18 (47); Mutant spots per individual (number of spots), Twin ([1]; URE 20 mM + 120 μg/mL): 0.03 (1); mortality (Sprague Dawley rats; single oral 5000 mg/kg BW): 40%; LD50 (Sprague Dawley rats; single oral administration): ~5000 mg/kg BW
